Data taken from the NIST ThermoML archive (doi:10.1021/acs.jced.5b00682).

Experiments:
[1] = xn = mol fraction of the nth substance listed; details: 101 kPa, Liquid, Frequency=0.001 MHz, Alternating current cell with electrodes
[2] = 101.33 kPa, Liquid, Alternating current cell with electrodes

[Cl-].[Cs+] [cesium chloride] + [Cl-].[Li+]
electrical conductivity [S/m], [1]
Details	x1 = 0.42	x1 = 0.425
593.5 K	33.3	–
598.5 K	35.5	–
603 K	–	33.3
603.5 K	37.9	–
608 K	–	35.5
610.5 K	41.1	–
613 K	–	37.5
613.5 K	42.4	–
618 K	–	39.8
623 K	–	42
623.5 K	47.1	–
628 K	–	44.2
628.5 K	49.5	–
629 K	52.4	–
633 K	–	46.5
633.5 K	52	–
638 K	57.1	48.8
643 K	–	51.2
643.5 K	57	–
648 K	–	53.4
650 K	62.1	–
650.5 K	60.5	–
653 K	–	55.9
653.5 K	62	–
658 K	66.5	58.2
663 K	–	60.6
663.5 K	67.1	–
668 K	–	63
670 K	72.1	–
670.5 K	70.6	–
673 K	–	65.4
673.5 K	72.1	–
678 K	76.6	67.8
683 K	–	70.1
683.5 K	77.2	–
688 K	–	72.5
690 K	82.2	–
690.5 K	80.6	–
693 K	–	74.9
693.5 K	82.2	–
698 K	86.9	77.1
703 K	–	79.6
703.5 K	87	–
708 K	–	81.7
710 K	91.8	–
710.5 K	90.2	–
713 K	–	84
718 K	97.1	86.3
723 K	–	88.4

O=[N+]([O-])[O-].[K+] [potassium nitrate]
[2]
Details	electrical conductivity [S/m]
618.5 K	64.7
623.5 K	66.2
624.6 K	66.5
626.5 K	67.1
627.9 K	67.5
628.4 K	67.7
628.5 K	67.7
630.5 K	68.3
631.5 K	68.5
633.5 K	69.1
633.6 K	69.1
633.8 K	69.2
636.7 K	70.1
638.5 K	70.6
648.5 K	73.4
649.6 K	73.7
653.5 K	74.9
658.5 K	76.3
659.6 K	76.6
663.5 K	77.7
665 K	78.2

O=[N+]([O-])[O-].[Na+] [sodium nitrate]
[2]
Details	electrical conductivity [S/m]
583 K	98.7
593 K	103
603 K	108
613 K	112
623 K	116
633 K	121
643 K	125
